IC50 data for two molecules are collected here from patent US5491167A, “Hexahydronaphthalene ester derivatives, their preparation and their therapeutic uses” (Sankyo Company, Limited, priority 1993, dated 1996).

For the experiment, the target named is T1, HMG-CoA reductase (Rattus norvegicus, UniProt P51639).
T1 construct: an enzyme solution (rat liver microsomal fraction); from tissue; host or cells: rat liver microsomal fraction
T1 sequence (P51639 1-887): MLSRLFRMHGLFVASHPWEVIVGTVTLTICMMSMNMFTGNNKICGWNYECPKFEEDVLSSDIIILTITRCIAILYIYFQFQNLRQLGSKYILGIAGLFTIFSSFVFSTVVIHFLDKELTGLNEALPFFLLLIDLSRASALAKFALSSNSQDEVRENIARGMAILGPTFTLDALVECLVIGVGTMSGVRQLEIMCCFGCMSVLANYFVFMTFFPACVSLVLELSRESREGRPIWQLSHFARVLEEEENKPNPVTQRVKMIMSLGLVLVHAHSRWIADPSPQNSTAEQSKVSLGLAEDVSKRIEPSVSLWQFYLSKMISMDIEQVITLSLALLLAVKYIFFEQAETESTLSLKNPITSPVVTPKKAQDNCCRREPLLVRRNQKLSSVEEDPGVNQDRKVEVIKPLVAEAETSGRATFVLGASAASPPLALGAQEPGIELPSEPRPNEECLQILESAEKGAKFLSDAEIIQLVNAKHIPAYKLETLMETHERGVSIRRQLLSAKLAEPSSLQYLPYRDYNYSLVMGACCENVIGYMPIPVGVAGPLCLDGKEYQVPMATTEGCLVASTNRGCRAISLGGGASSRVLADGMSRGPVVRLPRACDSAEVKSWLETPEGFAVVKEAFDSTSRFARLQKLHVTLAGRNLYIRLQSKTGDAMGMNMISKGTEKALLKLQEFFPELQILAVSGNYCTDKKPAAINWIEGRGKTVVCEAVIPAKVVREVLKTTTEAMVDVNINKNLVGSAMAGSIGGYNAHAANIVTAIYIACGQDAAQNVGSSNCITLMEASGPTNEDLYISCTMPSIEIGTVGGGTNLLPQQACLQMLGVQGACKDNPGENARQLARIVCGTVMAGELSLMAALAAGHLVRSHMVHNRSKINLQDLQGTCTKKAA
The experiment in a line: Determination of HMG-CoA Reductase Inhibitory Activity. Format: biochemical. The following applies: rat liver microsomal fraction, 0.2 mM [14C]HMG-CoA, pH7.4, 15 minutes at 37° C. The procedure:
The ability of the preferred test compounds to inhibit the activity of HMG-CoA reductase was determined by the method of Koga et al. [Eur. J. Biochem. 209, 315-319 (1992)], the improved procedure of Kuroda et al. [Biochem. Biophys, Acta, 485, 70-81 (1977)] which a modification of the method of Shapiro et al. [Anal. Biochem. 31, 383-390, (1969)].
A solution of 5 μl of the preferred test compound dissolved in distilled water was added to 45 μl of a reaction mixture containing 100 mM of a potassium phosphate buffer (pH7.4), 0.2 mM of [^14 C]HMG-CoA, 10 mM of ethylenediaminetetraacetic acid disodium salt, 10 mM of dithiothreitol, 10 mM of NADPH (=reduced nicotinamide adenine dinucleotide phosphate) and an enzyme solution (rat liver microsomal fraction). The concentrations are expressed in terms of the final 50 μl of assay mixture. The resulting mixture was incubated for 15 minutes at 37° C. The reaction was then terminated by adding 10 μl of 2N aqueous hydrochloric acid, to lactonize the [^14 C]mevalonate produced. After 15 minutes incubation, 1 ml of a 1:1 by volume aqueous suspension of Biorex-5 was added and the tubes were vigorously mixed using a Vortex mixer. […] The supernatant (400 μl) was mixed with 4.5 ml of Optiflow™ in scintillation vials and the activity of the [^14 C]mevalonolactone was determined by a liquid scintillation counter.
Background: Liver microsomes are vesicles of endoplasmic reticulum, rich in cytochrome P450 enzymes.

Structures can show the parent of a compound that is named as a salt.

In general, IC50 refers to the midpoint of a concentration-inhibition curve. Read a high IC50 as lower potency. `CCC(Oc1ccc(C)cc1)C(=O)O[C@H]1C[C@H](O)C=C2C=C[C@H](C)[C@H](CC[C@@H](O)C[C@@H](O)CC(=O)O)[C@H]21` (stereo partly drawn) [Example 3, Sodium Salt of (3R,5R)-3,5-dihydroxy-7-{(1S,2S,6S,8S,8aR)-1,2,6,7,8,8a-hexahydro-6-hydroxy-8-[(2RS)-2-(4-methylphenoxy)butyryloxy]-2-methyl-1-naphthyl}heptanoic acid] returned a half-inhibitory concentration (IC50) of 30.6 nM. This lies in the double-digit nanomolar range.

In turn, `CCC(Oc1c(C)cccc1C)C(=O)O[C@H]1C[C@H](O)C=C2C=C[C@H](C)[C@H](CC[C@@H](O)C[C@@H](O)CC(=O)O)[C@H]21` (stereo partly drawn) [Example 6, Sodium salt of (3R,5R)-3,5-dihydroxy-7-{(1S,2S,6S,8S,8aR)-1,2,6,7,8,8a-hexahydro-6-hydroxy-8-[(2RS)-2-(2,6-dimethylphenoxy)butyryloxy]-2-methyl-1-naphthyl}heptanoicacid] displayed an IC50 of 33.5 nM.
